Laboratory results from paper PMC11289455 (Scientific Reports, 2024).
Where two headings read alike, the source gives them in different places.

Experiments:
[1] = target: T1, β2 (beta-2 adrenergic receptor) (Homo sapiens, UniProt P07550); assay: SafetyScreen44: β2; assay type: binding
T1 construct: purchased Eurofins Cerep SafetyScreen44

[2] = target: T2, CB1 (cannabinoid receptor type 1) (Homo sapiens, UniProt P21554); assay: SafetyScreen44: CB1; assay type: binding
T2 construct: purchased Eurofins Cerep SafetyScreen44

[3] = target: T3, CB2 (cannabinoid receptor type 2) (Homo sapiens, UniProt P34972); assay: SafetyScreen44: CB2; assay type: binding
T3 construct: purchased Eurofins Cerep SafetyScreen44

[4] = target: T4, CCK1 (CCKA) (cholecystokinin 1 receptor) (Homo sapiens, UniProt P32238); assay: SafetyScreen44: CCK1 (CCKA); assay type: binding
T4 construct: purchased Eurofins Cerep SafetyScreen44
T4 sequence (P32238 1-428): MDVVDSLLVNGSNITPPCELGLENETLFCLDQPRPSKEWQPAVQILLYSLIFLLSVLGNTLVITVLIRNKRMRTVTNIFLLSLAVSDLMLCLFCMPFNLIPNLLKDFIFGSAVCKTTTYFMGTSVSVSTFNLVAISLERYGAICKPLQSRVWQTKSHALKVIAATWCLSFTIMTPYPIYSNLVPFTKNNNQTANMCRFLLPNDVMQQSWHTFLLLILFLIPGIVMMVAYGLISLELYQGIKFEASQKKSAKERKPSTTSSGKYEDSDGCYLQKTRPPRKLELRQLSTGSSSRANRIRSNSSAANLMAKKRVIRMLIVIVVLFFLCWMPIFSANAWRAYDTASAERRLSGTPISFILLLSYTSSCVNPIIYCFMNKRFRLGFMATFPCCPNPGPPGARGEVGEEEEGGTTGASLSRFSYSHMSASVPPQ

[5] = target: T5, H1 (histamine H1 receptor) (Homo sapiens, UniProt P35367); assay: SafetyScreen44: H1; assay type: binding
T5 construct: purchased Eurofins Cerep SafetyScreen44

[6] = target: T6, MAO-A (monoamine oxidase A) (Rattus norvegicus, UniProt P21396); assay: SafetyScreen44: MAO-A; assay type: binding
T6 construct: purchased Eurofins Cerep SafetyScreen44
T6 sequence (P21396 1-526): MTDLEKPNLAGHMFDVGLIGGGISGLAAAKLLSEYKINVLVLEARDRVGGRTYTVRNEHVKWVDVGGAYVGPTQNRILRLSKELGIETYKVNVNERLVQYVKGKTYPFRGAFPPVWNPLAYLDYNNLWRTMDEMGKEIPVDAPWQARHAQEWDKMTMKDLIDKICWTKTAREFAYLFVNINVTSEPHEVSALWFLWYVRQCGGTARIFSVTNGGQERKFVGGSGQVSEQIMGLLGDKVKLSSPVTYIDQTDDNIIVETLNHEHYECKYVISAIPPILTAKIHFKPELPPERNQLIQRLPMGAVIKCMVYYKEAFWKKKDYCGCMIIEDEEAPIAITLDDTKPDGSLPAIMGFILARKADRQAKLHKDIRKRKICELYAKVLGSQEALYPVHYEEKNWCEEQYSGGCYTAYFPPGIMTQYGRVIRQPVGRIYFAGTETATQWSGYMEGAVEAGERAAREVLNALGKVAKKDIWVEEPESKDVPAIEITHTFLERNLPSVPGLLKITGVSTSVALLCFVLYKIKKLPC

[7] = target: T7, 5-HT2A (serotonin 2A receptor) (Homo sapiens, UniProt P28223); assay: SafetyScreen44: 5-HT2A; assay type: binding
T7 construct: purchased Eurofins Cerep SafetyScreen44

[8] = target: T8, 5-HT2B (serotonin 2B receptor) (Homo sapiens, UniProt P41595); assay: SafetyScreen44: 5-HT2B; assay type: binding
T8 construct: purchased Eurofins Cerep SafetyScreen44

[9] = target: T9, PDE3A (phosphodiesterase 3A) (Homo sapiens, UniProt Q14432); assay: SafetyScreen44: PDE3A; assay type: biochemical
T9 construct: purchased Eurofins Cerep SafetyScreen44

acetylcholinesterase = target: T10, acetylcholinesterase (Homo sapiens, UniProt P22303); assay: SafetyScreen44: acetylcholinesterase; assay type: biochemical
T10 construct: purchased Eurofins Cerep SafetyScreen44

[10] = Rat pharmacokinetic and tissue distribution study, oral dosing
Procedure: Table S2. […] Plasma, small intestine, colon, and colon contents were sampled at terminal time points. Tissues and content were homogenized in buffer (1:1 PBS:ethanol with EDTA-free protease inhibitor tablets [Roche]). All samples were analyzed using LC-MS/MS.

[11] = First-in-human study, pharmacokinetics; assay type: in vivo; settings: healthy participants
Procedure: The purpose of the first-in-human, single-center, randomized, double-blind, placebo-controlled study was to determine the safety, tolerability, pharmacokinetics, and pharmacodynamics of JNJ-77242113 in healthy participants. […] AEs were coded using the Medical Dictionary for Regulatory Activities (Version 23.1).
Whole blood samples were collected in TruCulture Tubes containing 10 ng/mL IL-2 and 20 ng/mL IL-18 with or without additional IL-23 (0.5 ng/mL, R&D Systems/Biotechne). […] IFNγ was quantified via the V-Plex-plus human IFNγ kit (MSD).
Mean concentration–time profiles for each treatment/dose group were presented graphically. Descriptive statistics were used to describe demographic and safety data.

[12] = male Sprague-Dawley rats, 10 mg/kg oral, n=4/timepoint, homogenate, LC-MS/MS
[13] = male Sprague-Dawley rats, 10 mg/kg oral, n=4/timepoint, tissue homogenate, LC-MS/MS
[14] = male, Sprague-Dawley, rat, in vivo, po, 10 mg/kg
[15] = Part 2 (MAD), once daily oral dosing for 10 days

T1 sequence (P07550 whole entry): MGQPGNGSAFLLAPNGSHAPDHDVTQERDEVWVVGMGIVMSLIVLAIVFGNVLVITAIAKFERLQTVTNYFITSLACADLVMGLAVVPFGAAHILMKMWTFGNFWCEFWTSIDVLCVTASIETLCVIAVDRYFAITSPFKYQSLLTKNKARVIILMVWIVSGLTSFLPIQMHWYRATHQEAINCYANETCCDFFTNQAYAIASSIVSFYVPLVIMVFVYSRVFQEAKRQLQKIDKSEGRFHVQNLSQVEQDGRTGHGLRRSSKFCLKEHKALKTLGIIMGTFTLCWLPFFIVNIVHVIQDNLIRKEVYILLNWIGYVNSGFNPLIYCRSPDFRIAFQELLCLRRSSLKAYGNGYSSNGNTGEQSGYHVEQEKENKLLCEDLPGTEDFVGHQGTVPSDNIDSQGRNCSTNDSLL
T8 sequence (P41595 whole entry): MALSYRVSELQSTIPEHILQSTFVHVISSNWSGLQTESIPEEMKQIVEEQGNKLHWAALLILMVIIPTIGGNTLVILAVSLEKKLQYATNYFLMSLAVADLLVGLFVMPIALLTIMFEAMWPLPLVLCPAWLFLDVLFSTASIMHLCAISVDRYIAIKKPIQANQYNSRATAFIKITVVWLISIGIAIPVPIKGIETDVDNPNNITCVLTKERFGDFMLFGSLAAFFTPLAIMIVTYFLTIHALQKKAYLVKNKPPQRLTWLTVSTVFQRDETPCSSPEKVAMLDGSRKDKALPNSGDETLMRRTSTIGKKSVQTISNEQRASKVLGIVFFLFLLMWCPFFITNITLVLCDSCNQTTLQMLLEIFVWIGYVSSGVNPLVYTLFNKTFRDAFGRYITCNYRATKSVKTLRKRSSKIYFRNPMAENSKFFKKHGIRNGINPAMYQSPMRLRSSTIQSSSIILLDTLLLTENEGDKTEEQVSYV
T3 sequence (P34972 whole entry): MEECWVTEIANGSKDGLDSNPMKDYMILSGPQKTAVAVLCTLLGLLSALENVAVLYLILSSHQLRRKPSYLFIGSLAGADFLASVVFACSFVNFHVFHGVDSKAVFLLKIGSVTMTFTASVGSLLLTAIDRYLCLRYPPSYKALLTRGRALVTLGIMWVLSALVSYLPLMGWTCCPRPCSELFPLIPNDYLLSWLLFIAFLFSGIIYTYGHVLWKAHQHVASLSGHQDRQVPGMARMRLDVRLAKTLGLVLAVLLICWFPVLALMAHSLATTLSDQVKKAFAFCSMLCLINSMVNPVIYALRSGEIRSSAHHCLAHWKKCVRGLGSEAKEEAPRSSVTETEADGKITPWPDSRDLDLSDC
T10 sequence (P22303 32-614): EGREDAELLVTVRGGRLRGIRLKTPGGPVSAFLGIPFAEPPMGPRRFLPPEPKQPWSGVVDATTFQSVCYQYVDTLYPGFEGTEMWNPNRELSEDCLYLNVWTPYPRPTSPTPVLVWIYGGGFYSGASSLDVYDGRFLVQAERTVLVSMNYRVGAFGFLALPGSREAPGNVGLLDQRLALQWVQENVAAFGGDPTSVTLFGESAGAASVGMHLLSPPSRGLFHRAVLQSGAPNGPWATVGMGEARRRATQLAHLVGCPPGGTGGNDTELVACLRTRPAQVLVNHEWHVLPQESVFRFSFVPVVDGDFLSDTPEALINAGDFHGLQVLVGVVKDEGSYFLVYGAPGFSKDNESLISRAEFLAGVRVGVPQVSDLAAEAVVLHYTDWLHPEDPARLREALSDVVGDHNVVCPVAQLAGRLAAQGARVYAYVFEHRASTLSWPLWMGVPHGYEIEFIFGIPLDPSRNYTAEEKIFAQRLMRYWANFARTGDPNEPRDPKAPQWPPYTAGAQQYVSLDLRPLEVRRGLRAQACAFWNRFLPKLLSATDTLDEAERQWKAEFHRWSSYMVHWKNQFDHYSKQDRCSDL
T2 sequence (P21554 whole entry): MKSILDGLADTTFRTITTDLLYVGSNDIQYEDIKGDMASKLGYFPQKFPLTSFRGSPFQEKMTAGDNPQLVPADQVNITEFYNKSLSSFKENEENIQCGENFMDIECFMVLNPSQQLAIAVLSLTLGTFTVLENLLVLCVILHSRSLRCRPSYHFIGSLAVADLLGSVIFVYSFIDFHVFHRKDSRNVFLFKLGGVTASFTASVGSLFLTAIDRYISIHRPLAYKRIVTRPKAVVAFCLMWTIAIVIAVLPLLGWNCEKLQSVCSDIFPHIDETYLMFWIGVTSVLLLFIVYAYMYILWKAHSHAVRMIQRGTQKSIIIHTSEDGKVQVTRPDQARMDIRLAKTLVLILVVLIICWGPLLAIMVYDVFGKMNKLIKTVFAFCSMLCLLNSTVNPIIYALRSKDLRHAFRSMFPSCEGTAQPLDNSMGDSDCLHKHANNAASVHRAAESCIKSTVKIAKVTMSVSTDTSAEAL
T5 sequence (P35367 whole entry): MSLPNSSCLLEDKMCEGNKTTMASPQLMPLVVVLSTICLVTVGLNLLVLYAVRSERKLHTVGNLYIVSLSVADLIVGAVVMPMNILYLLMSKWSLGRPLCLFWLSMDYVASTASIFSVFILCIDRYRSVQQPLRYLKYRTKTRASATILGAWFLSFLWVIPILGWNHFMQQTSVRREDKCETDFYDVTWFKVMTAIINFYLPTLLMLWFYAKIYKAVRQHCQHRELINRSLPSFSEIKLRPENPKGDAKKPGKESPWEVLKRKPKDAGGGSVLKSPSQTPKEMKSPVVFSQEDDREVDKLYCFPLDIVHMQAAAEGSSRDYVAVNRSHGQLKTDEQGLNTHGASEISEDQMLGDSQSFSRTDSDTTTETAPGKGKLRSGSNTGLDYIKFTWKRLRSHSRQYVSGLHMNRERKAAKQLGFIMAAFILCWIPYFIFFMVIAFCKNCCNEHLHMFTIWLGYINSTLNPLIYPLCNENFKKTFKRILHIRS
T7 sequence (P28223 whole entry): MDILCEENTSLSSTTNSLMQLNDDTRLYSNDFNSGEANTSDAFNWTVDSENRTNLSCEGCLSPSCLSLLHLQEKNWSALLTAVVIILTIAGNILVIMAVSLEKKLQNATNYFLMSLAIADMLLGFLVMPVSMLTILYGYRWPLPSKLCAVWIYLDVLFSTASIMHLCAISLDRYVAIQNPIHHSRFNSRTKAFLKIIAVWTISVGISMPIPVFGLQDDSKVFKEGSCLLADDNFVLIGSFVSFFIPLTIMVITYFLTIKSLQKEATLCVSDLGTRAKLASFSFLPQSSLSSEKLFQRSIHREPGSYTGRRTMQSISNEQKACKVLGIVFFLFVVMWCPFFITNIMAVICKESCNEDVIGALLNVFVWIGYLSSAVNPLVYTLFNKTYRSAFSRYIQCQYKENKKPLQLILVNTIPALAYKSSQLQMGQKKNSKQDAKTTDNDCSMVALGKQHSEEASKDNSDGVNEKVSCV
T9 sequence (Q14432 whole entry): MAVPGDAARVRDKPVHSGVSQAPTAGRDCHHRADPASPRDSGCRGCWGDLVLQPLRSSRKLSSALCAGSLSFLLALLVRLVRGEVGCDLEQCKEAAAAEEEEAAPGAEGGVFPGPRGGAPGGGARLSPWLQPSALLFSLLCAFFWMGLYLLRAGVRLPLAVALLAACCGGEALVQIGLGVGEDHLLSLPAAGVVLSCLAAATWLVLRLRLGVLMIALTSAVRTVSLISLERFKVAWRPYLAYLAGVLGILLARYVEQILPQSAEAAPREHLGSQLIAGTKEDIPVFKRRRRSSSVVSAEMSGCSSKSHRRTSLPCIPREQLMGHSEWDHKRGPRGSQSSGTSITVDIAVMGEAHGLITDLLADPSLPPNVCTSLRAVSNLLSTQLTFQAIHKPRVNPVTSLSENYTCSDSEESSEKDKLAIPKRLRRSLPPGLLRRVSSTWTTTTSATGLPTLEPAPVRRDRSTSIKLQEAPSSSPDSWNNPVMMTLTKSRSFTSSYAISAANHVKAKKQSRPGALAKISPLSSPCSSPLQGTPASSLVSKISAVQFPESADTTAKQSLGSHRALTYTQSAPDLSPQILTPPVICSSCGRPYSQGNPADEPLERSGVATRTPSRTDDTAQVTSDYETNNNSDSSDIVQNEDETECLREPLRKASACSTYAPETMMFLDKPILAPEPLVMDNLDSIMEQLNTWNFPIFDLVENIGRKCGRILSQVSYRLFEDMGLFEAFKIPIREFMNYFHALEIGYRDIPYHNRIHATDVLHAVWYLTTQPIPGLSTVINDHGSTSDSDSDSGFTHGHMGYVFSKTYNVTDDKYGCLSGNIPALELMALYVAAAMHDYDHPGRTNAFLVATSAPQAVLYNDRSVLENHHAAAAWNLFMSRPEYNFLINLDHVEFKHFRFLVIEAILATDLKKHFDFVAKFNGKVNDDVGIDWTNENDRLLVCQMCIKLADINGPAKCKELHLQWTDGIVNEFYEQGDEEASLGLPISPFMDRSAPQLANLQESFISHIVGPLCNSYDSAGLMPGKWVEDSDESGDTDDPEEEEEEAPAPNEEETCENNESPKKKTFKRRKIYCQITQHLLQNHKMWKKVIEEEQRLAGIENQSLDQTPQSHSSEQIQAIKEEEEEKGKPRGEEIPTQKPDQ

## CC(=O)NCCCC[C@@H]1NC(=O)[C@H](Cc2c[nH]c3c(C)cccc23)NC(=O)[C@H]([C@@H](C)O)NC(=O)[C@H](CC(N)=O)NC(=O)[C@@H](NC(C)=O)C(C)(C)SSC(C)(C)[C@@H](C(=O)N[C@@H](Cc2ccc(OCCN)cc2)C(=O)N[C@@H](Cc2ccc3ccccc3c2)C(=O)NC2(C(=O)N[C@@H](CCC(=O)O)C(=O)N[C@@H](CC(N)=O)C(=O)N[C@@H](Cc3cccnc3)C(=O)N(C)CC(N)=O)CCOCC2)NC1=O [JNJ-77242113, S^3,1,S^3,6-cyclo[N-acetyl-3-sulfanyl-L-valyl-L-asparaginyl-L-threonyl-7-methyl-L-tryptophyl-N^6-acetyl-L-lysyl-3-sulfanyl-L-valyl-O-(2-aminoethyl)-L-tyrosyl-3-(naphthalen-2-yl)-L-alanyl-4-aminooxan-4-carbonyl-L-α-glutamyl-L-asparaginyl-3-(pyridin-3-yl)-L-alanyl-N^2-methylglycinamide]]
[1]; 1st run, read-out: Percent inhibition of control ligand binding, β2, 1st run
  inhibition at 10 µM: -8.2%
[1]; 2nd run, read-out: Percent inhibition of control ligand binding, β2, 2nd run
  inhibition at 10 µM: -0.6%
[1]; mean of 2 runs, read-out: Percent inhibition of control ligand binding, β2, Mean
  inhibition at 10 µM: -4.4%
[2]; 1st run, read-out: Percent inhibition of control ligand binding, CB1, 1st run
  inhibition at 10 µM: 2.5%
[2]; 2nd run, read-out: Percent inhibition of control ligand binding, CB1, 2nd run
  inhibition at 10 µM: -6.9%
[2]; mean of 2 runs, read-out: Percent inhibition of control ligand binding, CB1, Mean
  inhibition at 10 µM: -2.2%
[3]; 1st run, read-out: Percent inhibition of control ligand binding, CB2, 1st run
  inhibition at 10 µM: -4.9%
[3]; 2nd run, read-out: Percent inhibition of control ligand binding, CB2, 2nd run
  inhibition at 10 µM: -5.8%
[3]; mean of 2 runs, read-out: Percent inhibition of control ligand binding, CB2, Mean
  inhibition at 10 µM: -5.4%
[4]; 1st run, read-out: Percent inhibition of control ligand binding, CCK1 (CCKA), 1st run
  inhibition at 10 µM: -29.4%
[4]; 2nd run, read-out: Percent inhibition of control ligand binding, CCK1 (CCKA), 2nd run
  inhibition at 10 µM: -12.3%
[4]; mean of 2 runs, read-out: Percent inhibition of control ligand binding, CCK1 (CCKA), Mean
  inhibition at 10 µM: -20.8%
[5]; 1st run, read-out: Percent inhibition of control ligand binding, H1, 1st run
  inhibition at 10 µM: -8.4%
[5]; 2nd run, read-out: Percent inhibition of control ligand binding, H1, 2nd run
  inhibition at 10 µM: -9.8%
[5]; mean of 2 runs, read-out: Percent inhibition of control ligand binding, H1, Mean
  inhibition at 10 µM: -9.1%
[6]; 1st run, read-out: Percent inhibition of control ligand binding, MAO-A, 1st run
  inhibition at 10 µM: 12%
[6]; 2nd run, read-out: Percent inhibition of control ligand binding, MAO-A, 2nd run
  inhibition at 10 µM: 10.3%
[6]; mean of 2 runs, read-out: Percent inhibition of control ligand binding, MAO-A, Mean
  inhibition at 10 µM: 11.2%
[7]; 1st run, read-out: Percent inhibition of control ligand binding, 5-HT2A, 1st run
  inhibition at 10 µM: 7%
[7]; 2nd run, read-out: Percent inhibition of control ligand binding, 5-HT2A, 2nd run
  inhibition at 10 µM: 3.3%
[7]; mean of 2 runs, read-out: Percent inhibition of control ligand binding, 5-HT2A, Mean
  inhibition at 10 µM: 5.1%
[8]; 1st run, read-out: Percent inhibition of control ligand binding, 5-HT2B, 1st run
  inhibition at 10 µM: -19.6%
[8]; 2nd run, read-out: Percent inhibition of control ligand binding, 5-HT2B, 2nd run
  inhibition at 10 µM: -6.7%
[8]; mean of 2 runs, read-out: Percent inhibition of control ligand binding, 5-HT2B, Mean
  inhibition at 10 µM: -13.1%
[9]; 1st run, read-out: Percent inhibition of control ligand binding, PDE3A, 1st run
  inhibition at 10 µM: -30.6%
[9]; 2nd run, read-out: Percent inhibition of control ligand binding, PDE3A, 2nd run
  inhibition at 10 µM: -44.7%
[9]; mean of 2 runs, read-out: Percent inhibition of control ligand binding, PDE3A, Mean
  inhibition at 10 µM: -37.6%
acetylcholinesterase; 1st run, read-out: Percent inhibition of control ligand binding, acetylcholinesterase, 1st run
  inhibition at 10 µM: 9.8%
acetylcholinesterase; 2nd run, read-out: Percent inhibition of control ligand binding, acetylcholinesterase, 2nd run
  inhibition at 10 µM: 2.2%
acetylcholinesterase; mean of 2 runs, read-out: Percent inhibition of control ligand binding, acetylcholinesterase, Mean
  inhibition at 10 µM: 6%
[10]; [12]
  AUClast, colon content: 1,700,000 ng·hr/g
  Cmax, colon content: 371,000 ng/g
  Tmax, colon content: 6 h
[10]; [13]
  AUClast, colon: 5,670 ng·hr/g
  Cmax, colon: 1,380 ng/g
  Tmax, colon: 6 h
[10]; [14]
  AUC(0-t): 23.1 ng·h/mL
  Cmax: 6.49 ng/mL
  Tmax: 3 h
[10]; rat, oral dosing, data not shown
  Oral bioavailability: low oral bioavailability
[11]; 100-fold dose range of 10 to 1000 mg oral
  Plasma exposure versus dose (in words): Dose-proportional plasma exposure
[11]; [15]
  Accumulation for AUC, Day 1 versus Day 10: 0.9 to 1.5
  Accumulation for Cmax, Day 1 versus Day 10: 0.7 to 1.6
[11]; oral 10 to 1000 mg, plasma LC–MS/MS
  Estimated terminal elimination half-life: 9 to 16 h
